From ChEMBL document CHEMBL1136639, “Synthesis and binding affinity of neuropeptide Y at opiate receptors” (Bioorg Med Chem Lett, 2003)
Activity calls are given as the source filed them. The calls are words filed in the database; no cut-off is given here. Starred links: 1 amine or outer side, 2 acyl side, 3 side chain; linkers in the order of their positions; H or OH if unused. Non-standard residues stand in square brackets, D forms with d. Residues, ends and D or L forms follow the SMILES beside them. X1 = NCCCC[C@H](C(=O)[C@H](CO)N[*:1])C(=O)[*:2]

What was measured:
Mu-type opioid receptor [1] = target: T1, Mu-type opioid receptor (Homo sapiens, UniProt P35372); experiment: Inhibitory activity against non-selective opiate receptor
T1 sequence (P35372 whole entry): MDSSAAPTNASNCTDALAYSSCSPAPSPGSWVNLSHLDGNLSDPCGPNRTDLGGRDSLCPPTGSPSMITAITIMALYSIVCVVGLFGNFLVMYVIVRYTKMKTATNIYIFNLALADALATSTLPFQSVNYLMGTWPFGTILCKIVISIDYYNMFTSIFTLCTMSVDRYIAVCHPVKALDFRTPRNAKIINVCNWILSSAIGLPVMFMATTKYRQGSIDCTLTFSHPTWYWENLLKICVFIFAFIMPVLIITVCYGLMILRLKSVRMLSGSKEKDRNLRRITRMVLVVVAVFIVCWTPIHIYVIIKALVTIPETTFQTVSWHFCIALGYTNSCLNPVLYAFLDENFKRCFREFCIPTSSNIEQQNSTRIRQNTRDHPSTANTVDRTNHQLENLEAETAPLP

Mu-type opioid receptor [2] = target: T1, Mu-type opioid receptor; experiment: Binding affinity towards non-selective opiate receptor
Mu-type opioid receptor [3] = target: T1, Mu-type opioid receptor; experiment: (§1) Inhibitory activity against non-selective opiate receptor; NA=Not active
Mu-type opioid receptor [4] = target: T1, Mu-type opioid receptor; experiment: Binding affinity towards non-selective opiate receptor; NA=Not active
Mu-type opioid receptor [5] = target: T1, Mu-type opioid receptor; experiment: as §1; remark: listed apart in the source

Molecule	IC50 (Mu-type opioid receptor [1])	Ki (Mu-type opioid receptor [2])	IC50 (Mu-type opioid receptor [3])	Ki (Mu-type opioid receptor [4])	NA (Mu-type opioid receptor [5])
CC[C@H](C)[C@H](NC(=O)[C@H](Cc1ccc(O)cc1)NC(=O)[C@H](Cc1c[nH]cn1)NC(=O)[C@H](CCCN=C(N)N)NC(=O)[C@H](CC(C)C)NC(=O)[C@H](C)NC(=O)[C@@H](N)CO)C(=O)N[C@@H](CC(N)=O)C(=O)N[C@@H](CC(C)C)C(=O)N[C@H](C(=O)N[C@H](C(=O)N[C@@H](CCCN=C(N)N)C(=O)N[C@@H](CCC(N)=O)C(=O)N[C@@H](CCCN=C(N)N)C(=O)N[C@@H](Cc1ccc(O)cc1)C(=O)O)[C@@H](C)O)[C@@H](C)CC	10 µM	5.1 µM	–	–	–
NCCCC[C@H](C(=O)[C@H](CO)NC(=O)[C@@H]1CCCN1C(=O)[C@@H](N)Cc1ccc(O)cc1)C(=O)N1CCC[C@H]1C(=O)N[C@@H](CC(=O)O)C(=O)O (H-YP[X1]PD-OH)	1.8 µM	1 µM	–	–	–
NCCCC[C@H](C(=O)[C@H](CO)NC(=O)[C@@H]1CCCN1C(=O)[C@@H](N)Cc1ccc(O)cc1)C(=O)N1CCC[C@H]1C(=O)N[C@@H](CC(=O)O)C(=O)N[C@@H](CC(N)=O)C(=O)N1CCC[C@H]1C(=O)O (H-YP[X1]PDNP-OH)	–	–	Not Active	Not Active	–
NC(=O)[C@@H]1CCCN1C(=O)[C@H](Cc1ccccc1)NC(=O)[C@@H]1CCCN1C(=O)[C@@H](N)Cc1ccc(O)cc1 [MORPHICEPTIN] (H-YPFP-NH2)	0.32 µM	0.15 µM	–	–	–
H-FPSKP-OH	15 µM	7.5 µM	–	–	–
H-INLITRQRY-OH	–	–	–	Not Active	inactive
